“Also recorded” adds a separate entry of the source.
What was measured:
LTB4 production = details: cited from earlier work
[1] = tested on: adult patients with cystic fibrosis; assay: EMPIRE-CF: absolute change from baseline in FEV1pp (spirometry); type: in vivo, human; details: 48 weeks of therapy
Protocol: The primary endpoints were absolute change from baseline in FEV1pp and safety outcomes. Secondary endpoints included rate of pulmonary exacerbations and time to first pulmonary exacerbation, and the effects on biomarkers of lung and systemic inflammation. Analyses are described in section entitled “Analysis.”
Spirometry data were recorded at screening and baseline; all other spirometric measurements at subsequent visits are ideally recorded within ±1 h of the baseline visit measurement. All tests met American Thoracic Society/European Respiratory Society criteria for quality (acceptability, reproducibility, and end of test criteria) [Miller et al., 2005]. To ensure consistency of measurement, spirometry measurements were ideally performed by the same researcher and the patient coached to use maximum effort at every attempt. Patients were able to take all of their concomitant medications according to their regular schedule; however, they were to refrain from using short-acting bronchodilators within 4 h of the scheduled spirometry time, and long-acting bronchodilators within 12-24 h of the scheduled spirometry time.
The primary analysis was based upon an analysis of variance (ANOVA) in which the average of the Week 48 change from baseline in FEV1pp for the two acebilustat doses was compared to that in the placebo group. […]

[2] = tested on: adult patients with cystic fibrosis; assay: EMPIRE-CF: safety and tolerability; type: in vivo, human; details: 48 weeks
Description: Treatment-emergent adverse events (TEAEs), including serious adverse events, were collected at each visit, and summarized by MEDRA system organ class and preferred term, severity, and relatedness to the study drug. An independent data monitoring committee monitored the safety and study conduct at approximately 8-week intervals.

[3] = in vivo; cited from earlier work
[4] = tested on: sputum neutrophils, sputum elastase, C-reactive protein, sputum LTB4; details: cited from earlier work
[5] = tested on: sputum neutrophil elastase, sputum neutrophil DNA, serum high-sensitivity C-reactive protein; assay: EMPIRE-CF: biomarkers (sputum DNA and elastase, serum hs-CRP); type: in vivo, human; details: compared with reductions seen in phase 1 trial
Protocol: Pulmonary exacerbations were analyzed both as the time to first pulmonary exacerbation and the rate of pulmonary exacerbations. The time to first protocol defined-pulmonary exacerbation were analyzed using a Cox proportional hazards model. The number of protocol-defined pulmonary exacerbations reported through the Week 48/Early Termination visit were annualized (where a year was defined as 52 weeks) analyzed using a negative binomial regression. The two active doses were compared to placebo individually as well as pooled together using a contrast statement similar to that used for the primary analysis. Point estimates, standard errors, and 95% CIs for the mean of number of pulmonary exacerbations were presented. The difference in means between each CTX-4430 group from placebo were presented along with standard errors and 95% CIs. Spirometry-based endpoints were analyzed using the same methods as the primary endpoint. Analyses of sputum DNA and elastase and serum high-sensitivity C-reactive protein were based upon descriptive statistics by treatment group.

[6] = once-daily, adult patients with CF

## O=C(O)c1ccc(CN2C[C@@H]3C[C@H]2CN3Cc2ccc(Oc3ccc(-c4ncco4)cc3)cc2)cc1 [acebilustat, 4-{[(1S,4S)-5-({4-[4-oxazol-2-yl-phenoxy]phenyl}methyl)-2,5-diazabicyclo[2.2.1]heptan-2-yl]methyl}benzoic acid]
LTB4 production; 50 mg dose
  peak reduction in LTB4 production: ~75%
LTB4 production; 100 mg dose, near-maximum
  reduction of serum LTB4 production: 86%
[1]
  absolute change in FEV1pp from baseline at Week 48 versus placebo (primary endpoint): not different from placebo; also recorded: did not separate from placebo; also recorded: No difference between acebilustat and placebo
[2]
  severity of the majority of adverse events: mild or moderate
  tolerability and risk of infection: safe and well tolerated
[2]; listed as Acebilustat
  tolerability and risk of infection: well tolerated with no increased risk of infection
[3]
  AUC0-24 at steady state, fed vs fasting: no differences
  Cmax or AUC0-24, healthy volunteers versus patients with CF: No significant differences
[4]; acebilustat treated groups
  C-reactive protein: Numerical reductions
[4]; [6]
  reduction of sputum elastase levels: up to 58%
  reduction of sputum neutrophil levels: up to 65%
[4]; patients with CF
  sputum LTB4 levels, acebilustat- vs placebo-treated patients: decreased significantly
[5]
  sputum neutrophil elastase, sputum neutrophil DNA and serum hs-CRP versus placebo: did not observe similar changes

From patent US12558353B2 (CELLTAXIS, LLC, priority 2018, dated 2026)
